Reference: PubChem BioAssay (NCI)
Several values for one entry are separate records, joined by “and”; a condition that tells them apart may be missing. Equal entries are not always repeated.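 Test compounds were applied to cells in 96-well plates for 48 hours at 5 doses. Abbreviation: GI50, concentration required for 50% inhibition of growth. TGI is the concentration that stops growth completely.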

Columns and labels:
Experiment in all cases: inhibition of tumour cell growth, NCI panel, 48 h
SR leukemia = test system: SR leukemia
RXF 393 renal = test system: RXF 393 renal
LOX IMVI melanoma = test system: LOX IMVI melanoma
A498 renal = test system: A498 renal
NCI-H460 lung = test system: NCI-H460 lung
SK-MEL-2 melanoma = test system: SK-MEL-2 melanoma
HT29 colon = test system: HT29 colon
DU-145 prostate = test system: DU-145 prostate
COLO 205 colon = test system: COLO 205 colon
T-47D breast = test system: T-47D breast

For `CN1CCN(c2ccc([N+](=O)[O-])c3no[n+]([O-])c23)CC1`, the GI50 (SR leukemia) was 20.1 nM, the TGI (SR leukemia) was 27.4 nM and 93.6 nM and the GI50 (RXF 393 renal) was 443 nM. The TGI (RXF 393 renal) was 1570 nM and 1680 nM, the GI50 (LOX IMVI melanoma) was 157 nM and the TGI (LOX IMVI melanoma) was 1140 nM and 612 nM. For the same molecule, the GI50 (A498 renal) was 288 nM, the TGI (A498 renal) was 2760 nM and 1710 nM and the GI50 (NCI-H460 lung) was 118 nM. For the same molecule, the TGI (NCI-H460 lung) was 1170 nM and 764 nM, the GI50 (SK-MEL-2 melanoma) was 468 nM and the TGI (SK-MEL-2 melanoma) was 3010 nM and 1660 nM. The GI50 (HT29 colon) was 135 nM, the TGI (HT29 colon) was 3430 nM and 512 nM and the GI50 (DU-145 prostate) was 302 nM. The TGI (DU-145 prostate) was 1990 nM and 1280 nM, the GI50 (COLO 205 colon) was 942 nM and the TGI (COLO 205 colon) was 2330 nM and 2410 nM. The GI50 (T-47D breast) was 600 nM and the TGI (T-47D breast) was 1160 nM and 2650 nM.

`CCOC(=O)c1cn2ncnc(Oc3ccc(NC(=O)NCCN(CC)CC)c(Cl)c3)c2c1C` was tested, and the GI50 (SR leukemia) was 1960 nM, the TGI (SR leukemia) was 5150 nM and the GI50 (RXF 393 renal) was 1630 nM. For the same molecule, the TGI (RXF 393 renal) was 3370 nM, the GI50 (LOX IMVI melanoma) was 1850 nM and the TGI (LOX IMVI melanoma) was 3550 nM. For the same molecule, the GI50 (A498 renal) was 2150 nM, the TGI (A498 renal) was 8080 nM and the GI50 (NCI-H460 lung) was 9100 nM. It also gave a TGI (NCI-H460 lung) of 24400 nM, a GI50 (SK-MEL-2 melanoma) of 2360 nM and a TGI (SK-MEL-2 melanoma) of 5380 nM. For the same molecule, the GI50 (HT29 colon) was 2260 nM, the TGI (HT29 colon) was 5450 nM and the GI50 (DU-145 prostate) was 7100 nM. For the same molecule, the TGI (DU-145 prostate) was 55100 nM, the GI50 (COLO 205 colon) was 2010 nM and the TGI (COLO 205 colon) was 3780 nM. It also gave a GI50 (T-47D breast) of 2770 nM and a TGI (T-47D breast) of 8720 nM.

Work on `O=C1/C(=C/c2ccc(C(F)(F)F)cc2)COc2ccc(O)cc21` yielded a GI50 (SR leukemia) of 1210 nM, a TGI (SR leukemia) of 10600 nM and a GI50 (RXF 393 renal) of 1740 nM. The TGI (RXF 393 renal) was 3480 nM, the GI50 (LOX IMVI melanoma) was 1690 nM and the TGI (LOX IMVI melanoma) was 3110 nM. It also gave a GI50 (A498 renal) of 11600 nM, a TGI (A498 renal) of 24000 nM and a GI50 (NCI-H460 lung) of 3240 nM. It also gave a TGI (NCI-H460 lung) of 10400 nM, a GI50 (SK-MEL-2 melanoma) of 9430 nM and a TGI (SK-MEL-2 melanoma) of 21900 nM. It also gave a GI50 (HT29 colon) of 2030 nM, a TGI (HT29 colon) of 4320 nM and a GI50 (DU-145 prostate) of 3230 nM. The TGI (DU-145 prostate) was 12000 nM, the GI50 (COLO 205 colon) was 2470 nM and the TGI (COLO 205 colon) was 5830 nM. The GI50 (T-47D breast) was 2030 nM and the TGI (T-47D breast) was 4760 nM.

`O=C1C(Cl)=C(Nc2ccc3c(c2NC2=C(Cl)C(=O)c4ccccc4C2=O)C(=O)c2ccccc2C3=O)C(=O)c2ccccc21` gave a GI50 (SR leukemia) of 1420 nM, a TGI (SR leukemia) greater than 100000 nM and a GI50 (RXF 393 renal) of 2970 nM. The TGI (RXF 393 renal) was 9790 nM, the GI50 (LOX IMVI melanoma) was 872 nM and the TGI (LOX IMVI melanoma) was 10400 nM. For the same molecule, the GI50 (A498 renal) was 2020 nM, the TGI (A498 renal) was 4200 nM and the GI50 (NCI-H460 lung) was 1860 nM. It also gave a TGI (NCI-H460 lung) of 5850 nM, a GI50 (SK-MEL-2 melanoma) of 1820 nM and a TGI (SK-MEL-2 melanoma) of 6330 nM. For the same molecule, the GI50 (HT29 colon) was 3120 nM, the TGI (HT29 colon) was 8540 nM and the GI50 (DU-145 prostate) was 1570 nM. The TGI (DU-145 prostate) was 2970 nM, the GI50 (COLO 205 colon) was 1690 nM and the TGI (COLO 205 colon) was 3720 nM. For the same molecule, the GI50 (T-47D breast) was 2190 nM and the TGI (T-47D breast) was 5990 nM.

Work on `CC1(C)CC(O)CCCCCCOc2c(CN)cccc2NC(=O)c2nc(cnc2N)-c2ccc(cc2)S1(=O)=O` (stereo not given) yielded a GI50 (SR leukemia) of less than 10 nM, a TGI (SR leukemia) of 469 nM and a GI50 (RXF 393 renal) of less than 10 nM. It also gave a TGI (RXF 393 renal) of 1540 nM, a GI50 (LOX IMVI melanoma) of 1260 nM and a TGI (LOX IMVI melanoma) of 2880 nM. For the same molecule, the GI50 (A498 renal) was 15.1 nM, the TGI (A498 renal) was 840 nM and the GI50 (NCI-H460 lung) was less than 19.2 nM. For the same molecule, the TGI (NCI-H460 lung) was 2310 nM, the GI50 (SK-MEL-2 melanoma) was 1360 nM and the TGI (SK-MEL-2 melanoma) was 3150 nM. The GI50 (HT29 colon) was 309 nM, the TGI (HT29 colon) was 3750 nM and the GI50 (DU-145 prostate) was 35.9 nM. It also gave a TGI (DU-145 prostate) of 2070 nM, a GI50 (COLO 205 colon) of 394 nM and a TGI (COLO 205 colon) of 2080 nM. It also gave a GI50 (T-47D breast) of 1670 nM and a TGI (T-47D breast) of 4150 nM.

With `CCCCCCCCCCC(CN(CC)CC)C(O)c1ccccc1` (stereo not given) the GI50 (SR leukemia) was 2440 nM, the TGI (SR leukemia) was 6230 nM and the GI50 (RXF 393 renal) was 1500 nM. It also gave a TGI (RXF 393 renal) of 3050 nM, a GI50 (LOX IMVI melanoma) of 1750 nM and a TGI (LOX IMVI melanoma) of 3190 nM. It also gave a GI50 (A498 renal) of 3680 nM, a TGI (A498 renal) of 14400 nM and a GI50 (NCI-H460 lung) of 1880 nM. The TGI (NCI-H460 lung) was 3500 nM, the GI50 (SK-MEL-2 melanoma) was 2310 nM and the TGI (SK-MEL-2 melanoma) was 5450 nM. It also gave a GI50 (HT29 colon) of 1760 nM, a TGI (HT29 colon) of 3810 nM and a GI50 (DU-145 prostate) of 1890 nM. The TGI (DU-145 prostate) was 3490 nM, the GI50 (COLO 205 colon) was 1810 nM and the TGI (COLO 205 colon) was 3700 nM. It also gave a GI50 (T-47D breast) of 1840 nM and a TGI (T-47D breast) of 4310 nM.

`c1cc(-c2cnn3nc(N4CCOCC4)ccc23)nc(NC2CC2)n1` gave a GI50 (SR leukemia) of 6480 nM, a TGI (SR leukemia) of 20000 nM and a GI50 (RXF 393 renal) of 4580 nM. For the same molecule, the TGI (RXF 393 renal) was 10800 nM, the GI50 (LOX IMVI melanoma) was 6230 nM and the TGI (LOX IMVI melanoma) was greater than 25000 nM. For the same molecule, the GI50 (A498 renal) was 5660 nM, the TGI (A498 renal) was 16600 nM and the GI50 (NCI-H460 lung) was 6610 nM. For the same molecule, the TGI (NCI-H460 lung) was greater than 25000 nM, the GI50 (SK-MEL-2 melanoma) was 7820 nM and the TGI (SK-MEL-2 melanoma) was 21600 nM. For the same molecule, the GI50 (HT29 colon) was 8350 nM, the TGI (HT29 colon) was greater than 25000 nM and the GI50 (DU-145 prostate) was 8660 nM. It also gave a TGI (DU-145 prostate) greater than 25000 nM, a GI50 (COLO 205 colon) of 8060 nM and a TGI (COLO 205 colon) greater than 23500 nM. For the same molecule, the GI50 (T-47D breast) was 8080 nM and the TGI (T-47D breast) was greater than 25000 nM.

`CCN1CCN(c2nc(C)cc(N(CCCNc3ccnc4cc(Cl)ccc34)Cc3ccco3)n2)CC1` was tested, and the GI50 (SR leukemia) was 2080 nM, the TGI (SR leukemia) was 5730 nM and the GI50 (RXF 393 renal) was 1980 nM. For the same molecule, the TGI (RXF 393 renal) was 4230 nM, the GI50 (LOX IMVI melanoma) was 1760 nM and the TGI (LOX IMVI melanoma) was 3750 nM. The GI50 (A498 renal) was 6530 nM, the TGI (A498 renal) was 49100 nM and the GI50 (NCI-H460 lung) was 3730 nM. It also gave a TGI (NCI-H460 lung) of 12900 nM, a GI50 (SK-MEL-2 melanoma) of 1940 nM and a TGI (SK-MEL-2 melanoma) of 3920 nM. For the same molecule, the GI50 (HT29 colon) was 2350 nM, the TGI (HT29 colon) was 8720 nM and the GI50 (DU-145 prostate) was 5890 nM. For the same molecule, the TGI (DU-145 prostate) was 19700 nM, the GI50 (COLO 205 colon) was 1850 nM and the TGI (COLO 205 colon) was 3980 nM. For the same molecule, the GI50 (T-47D breast) was 1970 nM and the TGI (T-47D breast) was 5550 nM.
